In ChEMBL document CHEMBL1201862, “PubChem BioAssay data set” (2004):
Active and inactive are the calls of the source. Cut-off read from the data, not from the text of the source: actives have a measured IC50 and inactives only a lower limit.

Target: Envelope glycoprotein gp160 (Human immunodeficiency virus 1, UniProt Q6QLK5)
Assay: cell-free HIV fusion peptide-binding blockers – biochemical, uHTS, fluorescence dequenching, […] (AID 1986)

Envelope glycoprotein gp160, sequence (Q6QLK5 whole entry, the tested form may be a part): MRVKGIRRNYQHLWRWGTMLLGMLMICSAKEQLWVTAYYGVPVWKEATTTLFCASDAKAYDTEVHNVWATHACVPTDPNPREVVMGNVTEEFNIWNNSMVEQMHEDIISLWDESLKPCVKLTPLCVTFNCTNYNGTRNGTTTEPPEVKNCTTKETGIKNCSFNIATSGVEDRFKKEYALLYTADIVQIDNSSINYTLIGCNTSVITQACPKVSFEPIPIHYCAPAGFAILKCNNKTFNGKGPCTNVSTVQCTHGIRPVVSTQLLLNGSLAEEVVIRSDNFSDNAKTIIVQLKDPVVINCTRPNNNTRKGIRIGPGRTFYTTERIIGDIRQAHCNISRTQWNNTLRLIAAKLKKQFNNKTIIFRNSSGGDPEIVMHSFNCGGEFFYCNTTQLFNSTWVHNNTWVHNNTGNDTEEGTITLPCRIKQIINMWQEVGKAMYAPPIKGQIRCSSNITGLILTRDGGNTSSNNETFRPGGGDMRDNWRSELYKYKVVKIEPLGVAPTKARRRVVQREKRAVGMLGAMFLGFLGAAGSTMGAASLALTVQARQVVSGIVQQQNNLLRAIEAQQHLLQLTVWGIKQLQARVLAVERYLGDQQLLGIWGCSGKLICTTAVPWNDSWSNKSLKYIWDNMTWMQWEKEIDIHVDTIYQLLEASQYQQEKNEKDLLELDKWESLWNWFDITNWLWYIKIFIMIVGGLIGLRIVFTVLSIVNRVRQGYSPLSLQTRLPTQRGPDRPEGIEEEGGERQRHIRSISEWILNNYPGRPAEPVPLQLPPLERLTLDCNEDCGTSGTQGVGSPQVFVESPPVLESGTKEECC

COc1ccc(-c2nn(-c3ccccc3)cc2/C=C\C(=O)Nc2ccc(C(=O)O)cc2)cc1
IC50: 18.3 µM (active)

CC1=C(C(=O)Nc2ccccc2)C(c2ccc(Cl)cc2)n2c(s/c(=C/c3cccc(OCC(=O)O)c3)c2=O)=N1 (configuration not stated)
IC50: 16.8 µM (active)
